SMILES strings stand for the structures. Numbers after ± are expanded uncertainties.

The conditions of the first data set: 298.15 K; 101.33 kPa; Liquid; Shanghai Precision & Scientific Instrument Co., LTD (DDS-307).
As for `CC(C)O` [propan-2-ol], the electrical conductivity was 5.2e-05 ± 3.1e-06 S/m.
Regarding `CCO` [ethanol], the electrical conductivity stood at 0.000413 ± 2.5e-05 S/m.
The same measure, in the same setting: in the case of `CCCCO` [butan-1-ol] it was 4.4e-05 ± 2.6e-06 S/m.

Staying with this data set, now noted: 303.15 K; 101.33 kPa; Liquid; Shanghai Precision & Scientific Instrument Co., LTD (DDS-307).
Consider `CC(C)O` [propan-2-ol], for which the electrical conductivity came to 7e-05 ± 4.2e-06 S/m.
With `CCO` [ethanol], the electrical conductivity was determined as 0.000504 ± 3e-05 S/m.
For the compound `O` [water], the electrical conductivity was determined as 0.00287 ± 0.00017 S/m.
For `CCCCO` [butan-1-ol], the electrical conductivity came to 5.55e-05 ± 3.3e-06 S/m.

The same data set, now with this note: 308.15 K; 101.33 kPa; Liquid; Shanghai Precision & Scientific Instrument Co., LTD (DDS-307).
In the case of `CC(C)O` [propan-2-ol], the electrical conductivity came to 7.5e-05 ± 4.5e-06 S/m.
On to `CCO` [ethanol], for which the electrical conductivity amounted to 0.000584 ± 3.5e-05 S/m.
As for `O` [water], the electrical conductivity is 0.00323 ± 0.00019 S/m.
As to `CCCCO` [butan-1-ol], the electrical conductivity was 6.58e-05 ± 4e-06 S/m.

The data set is the same for the next values; noted with them: 313.15 K; 101.33 kPa; Liquid; Shanghai Precision & Scientific Instrument Co., LTD (DDS-307).
As to `CC(C)O` [propan-2-ol], the electrical conductivity was found to be 8.08e-05 ± 4.9e-06 S/m.
With `CCO` [ethanol], the electrical conductivity came to 0.000644 ± 3.9e-05 S/m.
The same measure, in the same setting: in the case of `O` [water] it was 0.00349 ± 0.00021 S/m.
As to `CCCCO` [butan-1-ol], the electrical conductivity was found to be 6.9e-05 ± 4.1e-06 S/m.

Still in this data set, the particulars now being: 318.15 K; 101.33 kPa; Liquid; Shanghai Precision & Scientific Instrument Co., LTD (DDS-307).
On to `CC(C)O` [propan-2-ol], for which the electrical conductivity came to 8.43e-05 ± 5.1e-06 S/m.
Still for that read-out and setting: in the case of `CCO` [ethanol] it was 0.000711 ± 4.3e-05 S/m; in that of `O` [water], 0.00375 ± 0.00022 S/m; in that of `CCCCO` [butan-1-ol], 8e-05 ± 4.8e-06 S/m.
